In PubChem BioAssay AID1902 (Broad Institute, 2009) one finds EC50 data, which are given here for 94 compounds.

Structures are written as SMILES. “And” between values parts separate entries of the source, which are not always exact repeats. Equal entries are not always repeated. The source made the active and inactive calls.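 How the source made its calls: active means EC50 no more than a set limit of log units above the highest dose; inactive means the rest.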 Where only a bound is given, the exact number is not on record here.

For the experiment, the target named is S. pyogenes SKKanGAS, kanamycin survival, BacTiterGlo, 6 h. Kind of experiment: SKKanGAS survival reduction under kanamycin, dose response, streptokinase promoter inhibitor project, SKKanGAS strain, luminescence, dose confirmation (AID 1902).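 Further: lower survival reflects blocked streptokinase promoter driving kanamycin resistance gene.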

Take `CC(C)(C)c1cc[n+](C2=C([O-])c3ccccc3C(=O)/C2=N\S(=O)(=O)c2cccs2)cc1`: the EC50 is 2.02 µM.
To `Cc1nnc(NC(=O)c2ccc(S(=O)(=O)N(C)Cc3ccccc3)cc2)o1` belongs 4.71 µM; to `O=C(OCc1ccc(COC(=O)c2ccc(O)cc2)cc1)c1ccc(O)cc1`, 2.21 µM; to `CCN(c1ccccc1)S(=O)(=O)c1ccc(C(=O)Nc2nnc(CSC)o2)cc1`, 3.7 µM.
For `Cc1ccc(N=N/C(=C\O)C(=O)c2ccc(Cl)cc2)cc1`, the EC50 is 8.59 µM.
As for `CCCCCCc1cc2cc(C(=O)OCC)c(=O)oc2cc1O`, the EC50 was 5.46 µM.
To `C[C@]12CCC(O)CC1CCC1C2CC[C@]2(C)C(c3cc(C(F)(F)F)n[nH]3)CCC12` (some centres undefined) belongs 1.9 µM; to `O=C(Nc1ccccc1)Nc1cc(Cl)cc(Cl)c1`, 6.8 µM.
Under `CCOC(=O)c1sc2ncnc(NCC(c3cccs3)N(C)C)c2c1C` (centres undefined) stands 7.95 µM.
To `Oc1nc(Nc2ccccc2)sc1/C=C1\C=Nc2ccccc21` belongs 9.16 µM; to `Cn1cnnc1SCc1ccc(C(=O)N=Nc2c(O)n(Cc3ccc(Cl)cc3)c3ccccc23)cc1`, 4.51 µM; to `COc1cc(/C=C2/SC(=S)N(Cc3ccccc3)C2=O)cc(Cl)c1O`, 2.58 µM.
As to `Cc1[nH]n(-c2ccccc2)c(=O)c1/C=N/NC(=O)c1cccc(F)c1`, the EC50 is 3.44 µM.
Under `COc1c(N2CCNC(C)C2)c(F)cc2c(=O)c(C(=O)O)cn(C3CC3)c12` (centres undefined) stands 0.668 µM; under `CCCCC(=O)NC(c1ccc(Cl)cc1Cl)c1ccc2cccnc2c1O` (centres undefined), 1.97 µM.
Under `Cc1ccccc1C(=O)Nc1scc(-c2ccc(Br)cc2)c1C(=O)O` stands 1.82 µM; under `Cc1[nH]c2ccccc2c1/C=N/Nc1nc2ccccc2[nH]1`, 4.87 µM.
To `O=C(c1ccc(F)cc1)c1cc2ccc(O)cc2oc1=O` belongs 7.31 µM.
Regarding `CCOC(=O)N1CCC(N2Cc3cccc(C(=O)Nc4ccc(F)cc4)c3C2=O)CC1`, the EC50 was 5.9 µM.
To `Cc1ccc(NC(=S)c2nc3ccccc3[nH]2)c(C)c1` belongs 1.74 µM; to `Cc1c(Cl)cnn1CC(=O)NC1C(=O)N2C(C(=O)O)=C(CSc3nnnn3C)CSC12` (centres undefined), below 0.06 µM.
As for `Cc1ccc(C)c(-c2nnc(NC(=O)COc3ccccc3)o2)c1`, the EC50 was 1.7 µM.
With `Cc1ccccc1OCCCCc1c(C)n[nH]c1C`, the EC50 is 7.37 µM.
Under `CCc1c(C)sc2nc(C(C)C)nc(SCC(=O)N3CCc4ccccc4C3)c12` stands 7.89 µM.
For `CC1Oc2cc3c(-c4c(O)cc(O)c5c(O)c6c(cc45)OC(C)C(C)C6=O)c(O)cc(O)c3c(O)c2C(=O)C1C` (centres undefined), the EC50 is 0.319 µM.
To `O=S(=O)(NC(=NCc1ccccc1)c1ccccc1)c1ccc(Br)cc1` belongs > 15 µM (inactive).
To `FC(F)(F)c1cccc(-c2nc3nc(Cl)c(Cl)nc3[nH]2)c1` belongs 6.58 µM; to `COc1cc(OC)cc(C(=O)NC(=S)NNC(=O)Cc2cccs2)c1`, 0.716 µM.
Under `Cc1cc(C)c2nc(NNC(=O)c3ccc(S(=O)(=O)N4CC(C)CC(C)C4)cc3)sc2c1` (centres undefined) stands 0.815 µM; under `N#Cc1ccc(Cl)cc1NC(=O)CSc1nc2nc(-c3cccs3)cc(C(F)(F)F)c2c(=O)[nH]1`, 4.97 µM; under `COc1ccc(Nc2ncnc3scc(-c4ccc(OC)cc4)c23)cc1`, > 15 µM (inactive).
Regarding `CN1CCN(c2cc3c(cc2F)c(=O)c(C(=O)O)cn3CCF)CC1`, the EC50 was 4.37 µM.
Under `Nc1nc(-c2ccccn2)nc(N)c1Cc1ccccc1F` stands 15.3 µM; under `CCCCCCCCCCCCCCCCn1cc[n+](C)c1`, 1.9 µM and 2.05 µM.
To `CCCCC/C=C\C/C=C\C/C=C\C/C=C\CCCC(=O)Nc1ccc(O)cc1` belongs 1.2 µM.
To `Cc1nn(-c2ccc(Cl)cc2)c(Cl)c1/C=N/NC(=O)c1ccc(NS(=O)(=O)c2cccs2)cc1` belongs 2.06 µM; to `O=C(O)c1ccc(N/N=C/c2ccc(OC(=O)c3cccc(Cl)c3)cc2)cc1`, 1.4 µM; to `COCC1CCN(C(=O)CCc2nnc(C3(c4ccc(Cl)cc4)CCC3)o2)C1` (centres undefined), > 15 µM (inactive).
As to `Cc1cc(C(=O)N/N=C/c2cc(N=Nc3ccccc3)ccc2O)n[nH]1`, the EC50 is 2.02 µM.
To `COc1cc(Br)cc(/C=N/NC(=O)Cc2ccc(C(F)(F)F)cc2[N+](=O)[O-])c1O` belongs 1.1 µM; to `NCCS(=O)(=O)NC1CCCCC1`, > 15 µM (inactive).
To `Cc1[nH]n(-c2ccccc2)c(=O)c1/C=N\NC(=O)C1COc2ccccc2O1` (centres undefined) belongs 1.37 µM; to `O=C(Nc1ccccc1C(=O)Nc1nnc(C(F)(F)F)s1)c1ccccc1Cl`, 1.34 µM.
To `O=C(Oc1c(Cl)cc(Cl)c2cccnc12)c1cccs1` belongs 1.08 µM; to `O=C(Nc1nc(-c2ccccn2)cs1)C12CC3CC(CC(O)(C3)C1)C2`, 1.44 µM.
On to `Cc1oc(-c2ccc(F)cc2)nc1CN(Cc1ccccn1)CC1CCCO1` (centres undefined), for which the EC50 was 2 µM.
As to `Cc1ccc(Nc2c(-c3ccccn3)nc3cccc(C)n23)cc1`, the EC50 was 0.322 µM.
To `Oc1c(CN2CCN(c3ccccc3)CC2)cc(Br)c2cccnc12` belongs 1.67 µM; to `COc1cc(/C=C2\SC(=Nc3ccccc3)N(CCc3c[nH]c4ccccc34)C2=O)ccc1OC(C)C(=O)O` (centres undefined), 1.42 µM; to `CCCNC(=O)c1ccc(N2CCC3(CC2)CC(c2ccccc2)=NO3)c(NC(=O)c2ccco2)c1`, 8 µM.
Under `COc1ccc(S(=O)(=O)N2CCOC2CNC(=O)C(=O)NCc2ccccc2Cl)cc1` (centres undefined) stands > 15 µM (inactive); under `Cn1ncc(Cl)c1C(=O)N1CCC2(CC1)OCCO2`, > 15 µM (inactive).
Under `Cc1cc(C(C#N)c2ccc(Cl)cc2)c(Cl)cc1NC(=O)c1cc(I)cc(I)c1O` (centres undefined) stands 0.082 µM; under `CCCC(=O)NC(c1ccc(C(C)C)cc1)c1ccc2cccnc2c1O` (centres undefined), 5.54 µM.
Regarding `COc1ccc(O)c(/C=N/Nc2nc(Nc3ccccc3)nc(-n3nc(C)cc3C)n2)c1`, the EC50 was 0.868 µM.
Under `CN(C)CCCNc1cc(C(C)(C)C)nc2c(-c3ccc(Cl)cc3)cnn12` stands 1.94 µM; under `O=C(/C=C/c1ccccc1)NCCc1ccccc1`, > 15 µM (inactive); under `OC(CNCc1ccco1)Cn1c2ccc(Br)cc2c2cc(Br)ccc21` (centres undefined), 5.85 µM.
Regarding `COc1ccc(N2CCN(C(=S)NC(=O)c3cccs3)CC2)c([N+](=O)[O-])c1`, the EC50 is 6.21 µM.
Under `Cc1ccccc1Nc1c(-c2ccccn2)nc2c(C)cccn12` stands 0.397 µM; under `CC(C)CCC(CCNCc1ccccn1)c1ccc(Cl)cc1` (centres undefined), 13.2 µM.
To `O=[N+]([O-])c1ccc(NC(=S)NCCc2ccc(Cl)cc2)cc1` belongs 1.73 µM; to `c1ccc(Oc2nc(-c3ccccn3)nc3ccccc23)cc1`, 9.41 µM.
For the compound `CCCCCCn1c(=O)c(C(=O)N/N=C/c2cccc(F)c2)c(O)c2ccccc21`, the EC50 was 2.11 µM.
To `CCOc1ccccc1C(=O)OCC(=O)Nc1nnc(-c2ccccc2)o1` belongs 6.94 µM; to `C=CCOC(=O)C1=C(C)NC(SCC)=C(C#N)C1c1ccc(Cl)cc1` (centres undefined), 5.92 µM.
To `O=C(N/N=C/c1ccccn1)c1ccc(Cl)c(Cl)c1` belongs 6.85 µM.
Under `O=c1c2ccccc2c(C=Nc2ccc(O)cc2)c(O)n1Cc1ccccc1` stands 6.21 µM; under `CCC(C)Nc1nc(N)c([N+](=O)[O-])c(Nc2cc(OC)ccc2OC)n1` (centres undefined), 1.95 µM.
As for `Cn1nnnc1SCC(=O)Nc1nc(-c2ccccc2)c(-c2ccccc2)o1`, the EC50 was 7.27 µM.
To `CC(OC(=O)CC1CCCC1)C(=O)Nc1ccc(S(N)(=O)=O)cc1` (centres undefined) belongs > 15 µM (inactive).
As for `CC[C@H]1OC(=O)[C@H](C)[C@@H](O[C@H]2C[C@@](C)(OC)[C@@H](O)[C@H](C)O2)[C@H](C)[C@@H](O[C@@H]2O[C@H](C)C[C@H](N(C)C)[C@H]2O)[C@](C)(OC)C[C@@H](C)C(=O)[C@H](C)[C@@H](O)[C@]1(C)O`, the EC50 was below 0.06 µM.
Under `O=[N+]([O-])c1cc(Cl)c(O)c2ncccc12` stands 0.782 µM.
For the compound `Cc1ccc(NNC(=O)C2CCC2)cc1C`, the EC50 was > 15 µM (inactive).
With `O=C(O)CCCN1C(=O)/C(=C/c2cn(-c3ccccc3)nc2-c2cccs2)SC1=S`, the EC50 was 2.72 µM.
To `Cc1c(C(=O)Nc2nonc2-c2ccc(F)cc2)oc2ccc(F)cc12` belongs 4.06 µM; to `COc1ccc(/C=C/c2ccc3c(Br)ccc(O)c3n2)cc1`, 0.785 µM.
To `COc1ccccc1N=Nc1nc(-c2ccccc2)c(-c2ccccc2)[nH]1` belongs 1.39 µM; to `Cc1cccc(CCNC(=O)CC2C(=O)NCCN2Cc2ccccc2C)n1` (centres undefined), > 15 µM (inactive).
Under `CCCCCCCCCCCCCCCC[N+](C)(C)C` stands 3.02 µM; under `CCN(c1ccccc1)S(=O)(=O)c1ccc(C(=O)Nc2nnc(-c3ccco3)o2)cc1`, 2.04 µM.
As to `CCC1CCCCN1S(=O)(=O)c1ccc(C(=O)Nc2nnc(C3=COCCO3)o2)cc1` (centres undefined), the EC50 is 5.72 µM.
To `CCOc1ccc(NC(=O)c2ccc3c(=O)n(-c4ccc(OC)cc4OC)c(=S)[nH]c3c2)cc1` belongs 7.86 µM; to `CCOc1ccc(/C=N/Nc2cc(N3CCOCC3)nc(C)n2)c(O)c1`, 8.48 µM.
To `O=C(Nc1ccc(OC(F)(F)F)cc1)N1CCN(c2ccnc3cc(Cl)ccc23)CC1` belongs 9.37 µM.
Under `O=C(COc1cccc(Cl)c1)Nc1ccccc1N1CCCCC1` stands 5.29 µM; under `COc1ccc2cc(C(=O)NCc3ccccc3)c(=Nc3ccc(C(=O)O)cc3)oc2c1`, 3.83 µM; under `CCN(CC)c1ccc(-n2cc3c(=O)n(C)c(=O)n(C)c3c2)cc1`, 3.43 µM.
With `COc1ccc(CN(C)S(=O)(=O)c2ccc3c(c2)OCCO3)cc1`, the EC50 is > 15 µM (inactive).
To `COC(=O)c1ccc(CSc2cc(C)c3cc(C)cc(C)c3n2)o1` belongs 4.86 µM.
In the case of `Cn1c2ccccc2c(=O)c2c(=O)n(C3CCCCC3)c(-c3cccs3)nc21`, the concentration for a half-maximal effect (EC50) is 7.03 µM.
Consider `CCCN(Cc1ccco1)S(=O)(=O)c1ccc(OC)c(OC)c1`, for which the EC50 was > 15 µM (inactive).
Under `CCN(CC)C(=S)Sc1c(-c2ccccc2)c2cc(Cl)ccc2[nH]c1=O` stands 0.775 µM.
Turning to `O=c1cc2c(nn1Cc1ccc(Cl)cc1Cl)-c1ccccc1CC2`, the EC50 was 5.37 µM.
